# Measured values: ChEMBL document CHEMBL4673219, “Novel 5,6-disubstituted pyrrolo[2,3-d]pyrimidine derivatives as broad spectrum antiproliferative agents: Synthesis, cell based assays, kinase profile and molecular docking study” (Bioorg Med Chem, 2018)
# Values joined by “and” are separate entries in the source; they are usually repeats but may differ in a detail not shown here. Equal values may be shown once.
# What was measured:
# A549 = test: Growth inhibition of human A549/ATCC cells assessed as growth percentage at 0.01 uM incubated for 48 hrs by sulforhodamine B assay relative to control; format: functional; conditions: read-out: Activity
# SK-MEL-5 [1] = test: Growth inhibition of human SK-MEL-5 cells assessed as growth percentage at 0.1 uM incubated for 48 hrs by sulforhodamine B assay relative to control; format: functional; conditions: read-out: Activity
# COLO 205 = test: Growth inhibition of human COLO 205 cells assessed as growth percentage at 0.1 uM incubated for 48 hrs by sulforhodamine B assay relative to control; format: functional; conditions: read-out: Activity
# M14 = test: Growth inhibition of human M14 cells assessed as growth percentage at 0.01 uM incubated for 48 hrs by sulforhodamine B assay relative to control; format: functional; conditions: read-out: Activity
# MDA-MB-231 [2] = test: Growth inhibition of human MDA-MB-231/ATCC cells assessed as growth percentage at 10 uM incubated for 48 hrs by sulforhodamine B assay relative to control; format: functional; conditions: read-out: Activity
# HOP-92 [3] = test: Growth inhibition of human HOP-92 cells incubated for 48 hrs by sulforhodamine B assay; format: functional
# PC-3 [4] = test: Growth inhibition of human PC-3 cells assessed as growth percentage at 1 uM incubated for 48 hrs by sulforhodamine B assay relative to control; format: functional; conditions: read-out: Activity
# SK-BR-3 = test: Antiproliferative activity against human SK-BR-3 cells assessed as cell growth inhibition measured after 72 hrs by MTT assay; format: functional
# NCI-H226 [5] = test: Growth inhibition of human NCI-H226 cells incubated for 48 hrs by sulforhodamine B assay; format: functional; conditions: for CC50: read-out: LC50 (the source's name); for TGI: NCI-H226
# TK-10 = test: Growth inhibition of human TK-10 cells incubated for 48 hrs by sulforhodamine B assay; format: functional; conditions: for GI50 / TGI: TK-10
# NCI/ADR-RES = test: Growth inhibition of human NCI/ADR-RES cells incubated for 48 hrs by sulforhodamine B assay; format: functional; conditions: for CC50: read-out: LC50 (the source's name)
# MDA-MB-231 [6] = test: Growth inhibition of human MDA-MB-231/ATCC cells assessed as growth percentage at 0.1 uM incubated for 48 hrs by sulforhodamine B assay relative to control; format: functional; conditions: read-out: Activity
# SK-OV-3 [7] = test: Growth inhibition of human SK-OV-3 cells assessed as growth percentage at 100 uM incubated for 48 hrs by sulforhodamine B assay relative to control; format: functional; conditions: read-out: Activity
# PC-3 [8] = test: Growth inhibition of human PC-3 cells assessed as growth percentage at 10 uM incubated for 48 hrs by sulforhodamine B assay relative to control; format: functional; conditions: read-out: Activity
# SK-MEL-28 = test: Growth inhibition of human SK-MEL-28 cells assessed as growth percentage at 0.1 uM incubated for 48 hrs by sulforhodamine B assay relative to control; format: functional; conditions: read-out: Activity
# A498 = test: Growth inhibition of human A498 cells assessed as growth percentage at 0.01 uM incubated for 48 hrs by sulforhodamine B assay relative to control; format: functional; conditions: read-out: Activity
# SK-MEL-5 [9] = test: Growth inhibition of human SK-MEL-5 cells assessed as growth percentage at 1 uM incubated for 48 hrs by sulforhodamine B assay relative to control; format: functional; conditions: read-out: Activity
# ACHN [10] = test: Growth inhibition of human ACHN cells assessed as growth percentage at 0.1 uM incubated for 48 hrs by sulforhodamine B assay relative to control; format: functional; conditions: read-out: Activity
# ACHN [11] = test: Growth inhibition of human ACHN cells assessed as growth percentage at 0.01 uM incubated for 48 hrs by sulforhodamine B assay relative to control; format: functional; conditions: read-out: Activity
# MCF7 = test: Antiproliferative activity against human MCF7 cells assessed as cell growth inhibition measured after 72 hrs by MTT assay; format: functional
# IGROV-1 = test: Growth inhibition of human IGROV-1 assessed as growth percent at 0.1 uM incubated for 48 hrs by sulforhodamine B assay relative to control; format: functional; conditions: read-out: Activity
# KM12 = test: Growth inhibition of human KM12 cells assessed as growth percentage at 0.01 uM incubated for 48 hrs by sulforhodamine B assay relative to control; format: functional; conditions: read-out: Activity
# MDA-MB-468 [12] = test: Growth inhibition of human MDA-MB-468 cells assessed as growth percentage at 10 uM incubated for 48 hrs by sulforhodamine B assay relative to control; format: functional; conditions: read-out: Activity
# SK-OV-3 [13] = test: Growth inhibition of human SK-OV-3 cells assessed as growth percentage at 10 uM incubated for 48 hrs by sulforhodamine B assay relative to control; format: functional; conditions: read-out: Activity
# OVCAR-4 = test: Growth inhibition of human OVCAR-4 cells assessed as growth percentage at 1 uM incubated for 48 hrs by sulforhodamine B assay relative to control; format: functional; conditions: read-out: Activity
# NCI-H226 [14] = test: Growth inhibition of human NCI-H226 cells assessed as growth percentage at 100 uM incubated for 48 hrs by sulforhodamine B assay relative to control; format: functional; conditions: read-out: Activity
# SK-OV-3 [15] = test: Growth inhibition of human SK-OV-3 cells assessed as growth percentage at 1 uM incubated for 48 hrs by sulforhodamine B assay relative to control; format: functional; conditions: read-out: Activity
# MOLT-4 = test: Growth inhibition of human MOLT-4 cells incubated for 48 hrs by sulforhodamine B assay; format: functional
# OVCAR-5 = test: Growth inhibition of human OVCAR-5 cells assessed as growth percentage at 10 uM incubated for 48 hrs by sulforhodamine B assay relative to control; format: functional; conditions: read-out: Activity
# HOP-92 [16] = test: Growth inhibition of human HOP-92 cells assessed as growth percentage at 100 uM incubated for 48 hrs by sulforhodamine B assay relative to control; format: functional; conditions: read-out: Activity
# SN12C [17] = test: Growth inhibition of human SN12C cells assessed as growth percentage at 0.01 uM incubated for 48 hrs by sulforhodamine B assay relative to control; format: functional; conditions: read-out: Activity
# SN12C [18] = test: Growth inhibition of human SN12C cells assessed as growth percentage at 100 uM incubated for 48 hrs by sulforhodamine B assay relative to control; format: functional; conditions: read-out: Activity
# MDA-MB-468 [19] = test: Growth inhibition of human MDA-MB-468 cells assessed as growth percentage at 1 uM incubated for 48 hrs by sulforhodamine B assay relative to control; format: functional; conditions: read-out: Activity
# ACHN [20] = test: Growth inhibition of human ACHN cells assessed as growth percentage at 100 uM incubated for 48 hrs by sulforhodamine B assay relative to control; format: functional; conditions: read-out: Activity
# ACHN [21] = test: Growth inhibition of human ACHN cells incubated for 48 hrs by sulforhodamine B assay; format: functional
# [22] = AUClast in Sprague-Dawley rat at 10 mg/kg, iv measured up to 24 hrs by LC-MS/MS analysis; format: ADME, organism-based; design: route intravenous, dose 10 mg/kg, time <=24; conditions: in vivo
# [23] = Cmax in Sprague-Dawley rat at 10 mg/kg, po measured up to 24 hrs by LC-MS/MS analysis; format: ADME, organism-based; design: route oral, dose 10 mg/kg, time <=24; conditions: in vivo
# [24] = AUClast in Sprague-Dawley rat at 10 mg/kg, po measured up to 24 hrs by LC-MS/MS analysis; format: ADME, organism-based; design: route oral, dose 10 mg/kg, time <=24; conditions: in vivo
# HL-60(TB) [25] = test: Growth inhibition of human HL-60(TB) cells incubated for 48 hrs by sulforhodamine B assay; format: functional
# HL-60(TB) [26] = test: Growth inhibition of human HL-60(TB) cells assessed as growth percentage at 1 uM incubated for 48 hrs by sulforhodamine B assay relative to control; format: functional; conditions: read-out: Activity
compound,measurement,setting,value
Nc1nc2[nH]c(CN3CCN(c4cc(Cl)cc(Cl)c4)CC3)c(CN3CCN(c4cc(Cl)cc(Cl)c4)CC3)c2c(=O)[nH]1,growth at 0.01 µM,A549,97%
same,growth at 0.1 µM,SK-MEL-5 [1],98%
same,growth at 0.1 µM,COLO 205,101%
same,growth at 0.01 µM,M14,93%
same,growth at 10 µM,MDA-MB-231 [2],71.9%
same,GI50,"HOP-92 [3]; Homo sapiens, HOP-92",1.35 µM
same,TGI,"HOP-92 [3]; Homo sapiens, HOP-92, 48 h",3.54 µM
same,growth at 1 µM,PC-3 [4],86%
same,GI50,SK-BR-3,3.22 µM
same,GI50,NCI-H226 [5]; 48 h,1.58 µM and 15.8 µM
same,CC50,NCI-H226 [5]; 48 h,> 100 µM
same,TGI,NCI-H226 [5]; Homo sapiens,5.37 µM
same,GI50,TK-10,1.8 µM
same,TGI,TK-10,3.26 µM
same,TGI,NCI/ADR-RES,100 µM and > 1 µM
same,CC50,NCI/ADR-RES,> 100 µM
same,growth at 0.1 µM,MDA-MB-231 [6],98%
same,growth at 100 µM,SK-OV-3 [7],-74%
same,growth at 10 µM,PC-3 [8],59.6%
same,growth at 0.1 µM,SK-MEL-28,98%
same,growth at 0.01 µM,A498,90%
same,growth at 1 µM,SK-MEL-5 [9],89%
same,growth at 0.1 µM,ACHN [10],98%
same,growth at 0.01 µM,ACHN [11],94%
same,GI50,MCF7,4.02 µM
same,growth at 0.1 µM,IGROV-1,105%
same,growth at 0.01 µM,KM12,101%
same,growth at 10 µM,MDA-MB-468 [12],40.1%
same,growth at 10 µM,SK-OV-3 [13],90.2%
same,growth at 1 µM,OVCAR-4,83%
same,growth at 100 µM,NCI-H226 [14],-25%
same,growth at 1 µM,SK-OV-3 [15],102%
same,GI50,"MOLT-4; Homo sapiens, MOLT-4, 48 h",2.58 µM
same,TGI,"MOLT-4; Homo sapiens, MOLT-4, 48 h",8.56 µM
same,growth at 10 µM,OVCAR-5,92.2%
same,growth at 100 µM,HOP-92 [16],-72%
same,growth at 0.01 µM,SN12C [17],100%
same,growth at 100 µM,SN12C [18],-35%
same,growth at 1 µM,MDA-MB-468 [19],85%
same,growth at 100 µM,ACHN [20],-26%
same,GI50,ACHN [21],1.94 µM
same,TGI,ACHN [21],3.9 µM
CCCCCCCC(=O)Nc1nc2[nH]c(CN3CCN(Cc4cccc(F)c4)CC3)c(CN3CCN(Cc4cccc(F)c4)CC3)c2c(=O)[nH]1,growth at 0.01 µM,A549,98%
same,AUC(0-t) at 24 h,[22],317 ng·h/mL
same,growth at 0.1 µM,SK-MEL-5 [1],101%
same,growth at 0.1 µM,COLO 205,92%
same,growth at 0.01 µM,M14,100%
same,growth at 10 µM,MDA-MB-231 [2],-83%
same,TGI,HOP-92 [3]; 48 h,2.42 µM and 0.82 µM
same,GI50,"HOP-92 [3]; Homo sapiens, HOP-92",1.14 µM
same,LC50,"HOP-92 [3]; Homo sapiens, HOP-92",5.14 µM
same,growth at 1 µM,PC-3 [4],68%
same,GI50,SK-BR-3,3.91 µM
same,TGI,NCI-H226 [5]; Homo sapiens,3.84 µM
same,GI50,"NCI-H226 [5]; Homo sapiens, NCI-H226, 48 h",1.84 µM
same,CC50,"NCI-H226 [5]; Homo sapiens, NCI-H226, 48 h",8.04 µM
same,GI50,TK-10,1.74 µM
same,TGI,TK-10,3.26 µM
same,CC50,"TK-10; TK-10, 48 h, read-out: LC50 (the source's name)",6.11 µM
same,GI50,"NCI/ADR-RES; Homo sapiens, NCI/ADR-RES",1.5 µM
same,TGI,"NCI/ADR-RES; Homo sapiens, NCI/ADR-RES",3.01 µM
same,CC50,"NCI/ADR-RES; Homo sapiens, NCI/ADR-RES",6.04 µM
same,growth at 0.1 µM,MDA-MB-231 [6],108%
same,growth at 100 µM,SK-OV-3 [7],-99%
same,growth at 10 µM,PC-3 [8],-95.1%
same,growth at 0.01 µM,A498,66%
same,growth at 1 µM,SK-MEL-5 [9],84%
same,GI50,MCF7,2.15 µM
same,growth at 0.1 µM,IGROV-1,95%
same,growth at 0.01 µM,KM12,96%
same,growth at 10 µM,MDA-MB-468 [12],-68.7%
same,growth at 10 µM,SK-OV-3 [13],-61%
same,growth at 1 µM,OVCAR-4,63%
same,growth at 100 µM,NCI-H226 [14],-94%
same,growth at 1 µM,SK-OV-3 [15],107%
same,GI50,MOLT-4; 48 h,0.26 µM
same,LC50 (concentration killing 50% of cells),MOLT-4; 48 h,> 100 µM
same,TGI,MOLT-4; 48 h,0.74 µM
same,GI50,"MOLT-4; Homo sapiens, MOLT-4, 48 h",0.258 µM
same,LC50 (concentration killing 50% of cells),"MOLT-4; Homo sapiens, MOLT-4, 48 h",100 µM
same,TGI,"MOLT-4; Homo sapiens, MOLT-4, 48 h",0.736 µM
same,growth at 100 µM,HOP-92 [16],-95%
same,growth at 0.01 µM,SN12C [17],97%
same,growth at 100 µM,SN12C [18],-69%
same,Cmax,[23],10 ng/mL
same,AUC(0-t) at 24 h,[24],56.7 ng·h/mL
same,GI50,HL-60(TB) [25],1.74 µM
same,TGI,HL-60(TB) [25],3.75 µM
same,growth at 1 µM,MDA-MB-468 [19],29%
same,growth at 1 µM,HL-60(TB) [26],96%
